This assay addresses T1, human recombinant ENPP1 enzymes (Homo sapiens, UniProt P22413).
T1 construct: purchased R & D systems
T1 sequence (P22413 1-925): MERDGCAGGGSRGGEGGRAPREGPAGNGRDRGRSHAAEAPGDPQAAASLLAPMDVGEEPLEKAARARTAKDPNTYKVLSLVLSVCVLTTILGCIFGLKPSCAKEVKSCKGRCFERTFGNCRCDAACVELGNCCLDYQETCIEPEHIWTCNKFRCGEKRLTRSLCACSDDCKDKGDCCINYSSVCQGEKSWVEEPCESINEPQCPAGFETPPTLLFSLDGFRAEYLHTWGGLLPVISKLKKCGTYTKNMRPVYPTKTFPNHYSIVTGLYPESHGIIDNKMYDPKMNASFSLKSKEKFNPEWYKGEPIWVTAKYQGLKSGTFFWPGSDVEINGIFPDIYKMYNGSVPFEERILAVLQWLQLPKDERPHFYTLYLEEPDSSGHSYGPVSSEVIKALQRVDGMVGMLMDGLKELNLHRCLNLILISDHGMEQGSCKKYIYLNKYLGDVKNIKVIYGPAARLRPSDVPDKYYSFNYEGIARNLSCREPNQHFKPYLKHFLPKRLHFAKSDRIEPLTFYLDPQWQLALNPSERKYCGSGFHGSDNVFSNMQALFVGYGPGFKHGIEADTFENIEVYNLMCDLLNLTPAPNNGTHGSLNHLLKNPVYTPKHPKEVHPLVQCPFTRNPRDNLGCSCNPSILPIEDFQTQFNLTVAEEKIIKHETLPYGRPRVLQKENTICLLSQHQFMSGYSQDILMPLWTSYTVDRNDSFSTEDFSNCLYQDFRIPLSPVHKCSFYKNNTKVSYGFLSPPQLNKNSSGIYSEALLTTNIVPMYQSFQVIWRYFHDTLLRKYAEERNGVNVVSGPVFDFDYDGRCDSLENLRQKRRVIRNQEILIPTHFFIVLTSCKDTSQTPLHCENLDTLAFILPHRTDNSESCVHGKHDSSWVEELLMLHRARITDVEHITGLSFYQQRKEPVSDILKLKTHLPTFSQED
In words: ENPP1 Enzyme Assay with cGAMP Substrate (AMP-Glo). The settings on record: human recombinant ENPP1 3 ng/reaction, cGAMP 5 μM, 37° C. 90 minutes, average of two or more tests; read-out: Enzymatic activity IC50. The assay is classed as biochemical. On the procedure: ENPP1 hydrolyzes nucleotides or nucleotide derivatives to produce nucleoside-5′-monophosphate and pyrophosphate. In addition, ENPP1 hydrolyzes 2′,3′-cGAMP to produce 5′-adenosine monophosphate (AMP) and 5′-guanosine monophosphate (GMP). AMP produced from the reaction is measured using the AMP-Glo® kit (Promega). The AMP-Glo® kit contains two reagents. The first reagent terminates the AMP-producing enzymatic reaction, removes ATP and converts the produced AMP into ADP. The second reagent converts ADP to ATP which is used to generate luminescence in the luciferase reaction. The amount of luminescence measured is proportional to the amount of AMP produced by ENPP1.
The final reaction mixture contains 50 mM Tris (pH 8.5) buffer, 250 mM NaCl, 0.5 mM CaCl2), 1 μM ZnCl2, 5% glycerol and 1% DMSO. Serially diluted ENPP1 inhibitors (typically in the range of 10 μM to 0.5 nM) were pre-stored with human recombinant ENPP1 enzymes (R & D systems) at 3 ng/reaction and room temperature (RT) for 5 to 10 minutes. The reaction was initiated by addition of cGAMP (at a final concentration of 5 μM) and reacted at 37° C. for 90 minutes. At the end of the reaction, 10 μl of the AMP-Glo first reagent was added to stop the reaction and the result was stored at room temperature for 1 hour. After storage, 20 μl of an AMP detection solution (a mixture of AMP-Glo II reagent and Kinase-Glo at a ratio of 1:100) was added and stored at room temperature for 1 hour. Luminescence signals were measured using a Victor® plate reader (Perkin Elmer). The maximal activity control (containing enzymes and substrates in the presence of 1% DMSO; MAX) and the minimal activity control (containing substrates and 1% DMSO; MIN) were evaluated simultaneously. In each experiment, serially diluted reference ENPP1 inhibitors were tested as well. IC50, indicating % residual activity versus compound concentration was determined by fitting inhibition curves using the 3-parameter analysis of GraphPad Prism® software. Serially diluted samples of one compound were tested two or more times and an average IC50 of each compound was calculated.

The term IC50 denotes the concentration needed to halve the response being measured.

Structures can show the parent of a compound that is named as a salt.

With `CC(C)(C)OC(=O)Nc1cccc(-c2ccnc3[nH]c(=O)ccc23)c1` [Example 1, tert-butyl(3-(7-oxo-7,8-dihydro-1,8-naphthyridin-4-yl)phenyl)carbamate], the concentration for half-maximal inhibition (IC50) lay in the range of 1000 to 10000 nM.
To `NS(=O)(=O)NCc1ccc(F)c(Nc2ccnc3[nH]c(=O)ccc23)c1` [Example 91, N-(4-fluoro-3-((7-oxo-7,8-dihydro-1,8-naphthyridin-4-yl)amino)benzyl)sulfamide dihydrochloride] belongs less than 1000 nM; to `NS(=O)(=O)NCC1CCN(c2ccnc3[nH]c(=O)ccc23)CC1` [Example 124, N-((1-(7-oxo-7,8-dihydro-1,8-naphthyridin-4-yl)piperidin-4-yl)methyl)sulfamide], less than 1000 nM.
For `NS(=O)(=O)NCCC1CCN(c2ccnc3[nH]c(=O)ccc23)CC1` [Example 125, N-(2-(1-(7-oxo-7,8-dihydro-1,8-naphthyridin-4-yl)piperidin-4-yl)ethyl)sulfamide] the value was less than 1000 nM; for `NS(=O)(=O)NCc1ccc(Nc2ccnc3[nH]c(=O)ccc23)cc1` [Example 98, N-(4-((7-oxo-7,8-dihydro-1,8-naphthyridin-4-yl)amino)benzyl)sulfamide dihydrochloride], 1000 to 10000 nM; for `NC1CCN(c2ccnc3[nH]c(=O)ccc23)CC1` [Example 113, 5-(4-aminopiperidin-1-yl)-1,8-naphthyridin-2(1H)-one hydrochloride], less than 1000 nM.
For `O=c1ccc2c(Nc3cc4c(cc3F)CNCC4)ccnc2[nH]1` [Example 86, 5-((7-fluoro-1,2,3,4-tetrahydroisoquinolin-6-yl)amino)-1,8-naphthyridin-2(1H)-one dihydrochloride] the value was 1000 to 10000 nM; for `NS(=O)(=O)N1CCc2cc(F)c(-c3ccnc4[nH]c(=O)ccc34)cc2C1` [Example 66, 6-fluoro-7-(7-oxo-7,8-dihydro-1,8-naphthyridin-4-yl)-3,4-dihydroisoquinoline-2(1H)-sulfamide hydrochloride], less than 1000 nM.
`NCc1cccc(-c2ccnc3[nH]c(=O)ccc23)c1` [Example 7, 5-(3-(aminomethyl)phenyl)-1,8-naphthyridin-2(1H)-one hydrochloride]: the IC50 was less than 1000 nM.
For `NS(=O)(=O)NCCc1ccc(F)c(Nc2ccnc3[nH]c(=O)ccc23)c1` [Example 95, N-(4-fluoro-3-((7-oxo-7,8-dihydro-1,8-naphthyridin-4-yl)amino)phenethyl)sulfamide dihydrochloride] the value was less than 1000 nM; for `NS(=O)(=O)NCCc1cccc(Nc2ccnc3[nH]c(=O)ccc23)c1` [Example 92, N-(3-((7-oxo-7,8-dihydro-1,8-naphthyridin-4-yl)amino)phenethyl)sulfamide dihydrochloride], less than 1000 nM.
To `NS(=O)(=O)NCc1ccc(-c2ccnc3c2CCC(=O)N3)cc1` [Example 141, N-(4-(7-oxo-5,6,7,8-tetrahydro-1,8-naphthyridin-4-yl)benzyl)sulfamide] belongs less than 1000 nM.
Regarding `Cn1c(=O)ccc2c(-c3ccc(CNS(N)(=O)=O)cc3)ccnc21` [Example 67, N-(4-(8-methyl-7-oxo-7,8-dihydro-1,8-naphthyridin-4-yl)benzyl)sulfamide], the half-inhibitory concentration (IC50) was less than 1000 nM.
On to `CC(C)(C)OC(=O)NS(=O)(=O)N1CCc2ccc(-c3ccnc4c3CCC(=O)N4)cc2C1` [Example 138, tert-butyl((7-(7-oxo-5,6,7,8-tetrahydro-1,8-naphthyridin-4-yl)-3,4-diisoquinoline-2(1H)-yl)sulfonyl)carbamate], for which the IC50 was in the range of 1000 to 10000 nM.
To `NS(=O)(=O)NCc1ccc(-c2ccnc3[nH]c(=O)ccc23)cc1` [Example 40, N-(4-(7-oxo-7,8-dihydro-1,8-naphthyridin-4-yl)benzyl)sulfamide] belongs less than 1000 nM; to `NCc1ccc(-c2ccnc3c2CCC(=O)N3)cc1` [Example 133, 5-(4-(aminomethyl)phenyl)-3,4-dihydro-1,8-naphthyridin-2(1H)-one hydrochloride], less than 1000 nM; to `CC(C)(N)c1ccc(-c2ccnc3c2CCC(=O)N3)cc1` [Example 134, 5-(4-(2-aminopropan-2-yl)phenyl)-3,4-dihydro-1,8-naphthyridin-2(1H)-one hydrochloride], less than 1000 nM.
Regarding `O=c1ccc2c(-c3ccc(CNS(=O)(=O)C4CC4)cc3)ccnc2[nH]1` [Example 71, N-(4-(7-oxo-7,8-dihydro-1,8-naphthyridin-4-yl)benzyl)cyclopropanesulfonamide], the IC50 is 1000 to 10000 nM.
To `O=C1CCc2c(-c3ccc4c(c3)CNCC4)ccnc2N1` [Example 135, 5-(1,2,3,4-tetrahydroisoquinolin-7-yl)-3,4-dihydro-1,8-naphthyridin-2(1H)-one hydrochloride] belongs greater than 10000 nM; to `NS(=O)(=O)NCc1cc(F)c(-c2ccnc3[nH]c(=O)ccc23)c(F)c1` [Example 44, N-(3,5-difluoro-4-(7-oxo-7,8-dihydro-1,8-naphthyridin-4-yl)benzyl)sulfamide hydrochloride], less than 1000 nM.
For `Cn1c(=O)ccc2c(-c3ccc(CN)cc3)ccnc21` [Example 29, 5-(4-(aminomethyl)phenyl)-1-methyl-1,8-naphthyridin-2(1H)-one hydrochloride] the value was 1000 to 10000 nM.
For `CC(C)(C)OC(=O)NCc1cccc(-c2ccnc3[nH]c(=O)ccc23)c1` [Example 2, tert-butyl(3-(7-oxo-7,8-dihydro-1,8-naphthyridin-4-yl)benzyl)carbamate] the value was 1000 to 10000 nM.
Consider `CN(c1ccc2c(c1)CN(S(N)(=O)=O)CC2)c1ccnc2[nH]c(=O)ccc12` [Example 108, (7-(methyl(7-oxo-7,8-dihydro-1,8-naphthyridin-4-yl)amino)-3,4-dihydroisoquinolin-2(1H)-yl)sulfamide dihydrochloride], for which the IC50 is greater than 10000 nM.
To `O=c1ccc2c(N3CCC4(CCNC4)CC3)ccnc2[nH]1` [Example 117, 5-(2,8-diazaspiro[4,5]decan-8-yl)-1,8-naphthyridin-2(1H)-one hydrochloride] belongs 1000 to 10000 nM; to `NS(=O)(=O)N1CCCN(c2ccnc3[nH]c(=O)ccc23)CC1` [Example 127], 1000 to 10000 nM; to `NS(=O)(=O)Nc1ccc(-c2ccnc3[nH]c(=O)ccc23)cc1` [Example 39, N-(4-(7-oxo-7,8-dihydro-1,8-naphthyridin-4-yl)phenyl)sulfamide], 1000 to 10000 nM.
To `O=c1ccc2c(-c3ccc(CP(=O)(O)O)cc3)ccnc2[nH]1` [Example 75, (4-(7-oxo-7,8-dihydro-1,8-naphthyridin-4-yl)benzyl)phosphonic acid] belongs less than 1000 nM; to `NS(=O)(=O)Nc1cccc(-c2ccnc3c2CCC(=O)N3)c1` [Example 139, N-(3-(7-oxo-5,6,7,8-tetrahydro-1,8-naphthyridin-4-yl)phenyl)sulfamide], less than 1000 nM.
To `CN[C@H](C)c1ccc(-c2ccnc3[nH]c(=O)ccc23)cc1` [Example 17, (R)-5-(4-(1-(methylaminoethyl)phenyl)-1,8-naphthyridin-2(1H)-one hydrochloride] belongs 1000 to 10000 nM.
For the molecule `NCc1cccc(-c2ccnc3c2CCC(=O)N3)c1` [Example 132, 5-(3-(aminomethyl)phenyl)-3,4-dihydro-1,8-naphthyridin-2(1H)-one hydrochloride], the half-maximal inhibitory concentration (IC50) was greater than 10000 nM.

(Values after patent publication US20240140944A1, “NOVEL NAPHTHYRIDINONE DERIVATIVE HAVING INHIBITORY ACTIVITY AGAINST ECTONUCLEOTIDE PYROPHOSPHATASE-PHOSPHODIESTERASE AND USE THEREOF” (TXINNO BIOSCIENCE INC., priority 2020, published 2024).)
